SMILES strings stand for the structures.

Results on 26 molecules are retold here after ChEMBL document CHEMBL1154815, “3D QSAR studies on ketoamides of human cathepsin K inhibitors based on two different alignment methods” (Eur J Med Chem, 2010).

The assay addresses T1, Cathepsin K (Homo sapiens, UniProt P43235).
T1 sequence (P43235 whole entry): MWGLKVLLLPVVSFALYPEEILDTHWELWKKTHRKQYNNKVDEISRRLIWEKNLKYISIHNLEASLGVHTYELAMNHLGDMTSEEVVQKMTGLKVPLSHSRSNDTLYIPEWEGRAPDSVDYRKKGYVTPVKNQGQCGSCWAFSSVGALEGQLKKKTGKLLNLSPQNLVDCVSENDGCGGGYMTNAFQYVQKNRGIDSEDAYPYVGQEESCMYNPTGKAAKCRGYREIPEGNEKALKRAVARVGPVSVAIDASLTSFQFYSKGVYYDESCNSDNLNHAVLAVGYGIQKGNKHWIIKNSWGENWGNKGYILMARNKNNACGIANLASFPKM
The experiment in a line: Inhibition of human cathepsin K.

`CCCC[C@H](NC(=O)O[C@@H]1CN(C(=O)c2ccc(-c3ccccc3)cc2)CC1(C)C)C(=O)C(=O)N[C@H](C)c1ccccc1` showed an IC50 of 6.92 nM.
The same measure, in the same setting: with `CCCC[C@H](NC(=O)O[C@@H]1CN(C(=O)Oc2ccc3ccccc3c2)CC1(C)C)C(=O)C(=O)N[C@H](C)c1ccccc1` the figure was 57.5 nM; with `CCCC[C@H](NC(=O)O[C@@H]1CN(C(=O)Oc2ccc(-c3ccccc3)cc2)CC1(C)C)C(=O)C(=O)N[C@H](C)c1ccccc1`, 5.01 nM; with `CCCC[C@H](NC(=O)O[C@@H]1CN(C(=O)OCc2ccc(-c3ccccc3)cc2)CC1(C)C)C(=O)C(=O)N[C@H](C)c1ccccc1`, 2.09 nM.
On the same count and under the same terms, in the case of `CCCC[C@H](NC(=O)O[C@@H]1CN(C(=O)c2ccc3cc[nH]c3c2)CC1(C)C)C(=O)C(=O)N[C@H](C)c1ccccc1` it was 1.7 nM; in that of `CCCC[C@H](NC(=O)O[C@@H]1CN(S(=O)(=O)Cc2ccccc2)CC1(C)C)C(=O)C(=O)N[C@H](C)c1ccccc1`, 17 nM; in that of `CCCC[C@H](NC(=O)O[C@@H]1CN(C(=O)NCc2ccccc2)CC1(C)C)C(=O)C(=O)N[C@H](C)c1ccccc1`, 3.8 nM.
`CCCC[C@H](NC(=O)O[C@@H]1CN(C(=O)c2c(C)noc2C)CC1(C)C)C(=O)C(=O)N[C@H](C)c1ccccc1` showed an IC50 of 15.1 nM.
Still for that read-out and setting: in the case of `CCCC[C@H](NC(=O)O[C@@H]1CN(C(=O)Nc2ccccc2)CC1(C)C)C(=O)C(=O)N[C@H](C)c1ccccc1` it was 4.27 nM; in that of `CCCC[C@H](NC(=O)O[C@@H]1CN(C(=O)OCCc2ccccc2)CC1(C)C)C(=O)C(=O)N[C@H](C)c1ccccc1`, 32.4 nM.
On the same count and under the same terms, in the case of `CCCC[C@H](NC(=O)O[C@@H]1CN(C(=O)c2cc3ccccc3s2)CC1(C)C)C(=O)C(=O)N[C@H](C)c1ccccc1` it was 2.82 nM.
The same measure, in the same setting: with `CCCC[C@H](NC(=O)O[C@@H]1CN(C(=O)c2ccccc2)CC1(C)C)C(=O)C(=O)N[C@H](C)c1ccccc1` the figure was 64.6 nM.
With `CCCC[C@H](NC(=O)O[C@@H]1CN(S(=O)(=O)c2ccccc2)CC1(C)C)C(=O)C(=O)N[C@H](C)c1ccccc1`, the IC50 was 8.32 nM.
The same measure, in the same setting: with `CCCC[C@H](NC(=O)O[C@@H]1CN(C(=O)Cc2ccccc2)CC1(C)C)C(=O)C(=O)N[C@H](C)c1ccccc1` the figure was 3.02 nM.
Still for that read-out and setting: in the case of `CCCC[C@H](NC(=O)O[C@@H]1CN(C(=O)Oc2ccccc2)CC1(C)C)C(=O)C(=O)N[C@H](C)c1ccccc1` it was 28.8 nM.
The same measure, in the same setting: in the case of `CCCC[C@H](NC(=O)O[C@@H]1CN(C(=O)CCCc2ccccc2)CC1(C)C)C(=O)C(=O)N[C@H](C)c1ccccc1` it was 26.9 nM; in that of `CCCC[C@H](NC(=O)O[C@@H]1CN(C(=O)NCCc2ccccc2)CC1(C)C)C(=O)C(=O)N[C@H](C)c1ccccc1`, 6.61 nM; in that of `CCCC[C@H](NC(=O)O[C@@H](Cc1nnc(-c2ccccc2)o1)C(C)C)C(=O)C(=O)N[C@H](C)c1ccccc1`, 0.832 nM.
Molecule `CCCC[C@H](NC(=O)O[C@@H]1CN(C(=O)c2ccc3ccccc3c2)CC1(C)C)C(=O)C(=O)N[C@H](C)c1ccccc1` gave an IC50 of 1.58 nM.
`CCCC[C@H](NC(=O)O[C@H](Cc1nnc(-c2ccc(F)cc2)o1)C(C)(C)C)C(=O)C(=O)N[C@H]1CCCNC1=O`: it took 0.646 nM to reach half-maximal inhibition (IC50).
For the molecule `CCCC[C@H](NC(=O)O[C@@H]1CN(Cc2ccccc2)CC1(C)C)C(=O)C(=O)N[C@H](C)c1ccccc1`, the IC50 was 20.9 nM.
In turn, `CCCC[C@H](NC(=O)O[C@@H]1CN(C(=O)c2ccno2)CC1(C)C)C(=O)C(=O)N[C@H](C)c1ccccc1` had an IC50 of 8.91 nM.
On to `CCCC[C@H](NC(=O)O[C@@H]1CN(C(=O)c2cccnc2)CC1(C)C)C(=O)C(=O)N[C@H](C)c1ccccc1`, for which the IC50 was 14.1 nM.
The same measure, in the same setting: with `CCCC[C@H](NC(=O)O[C@@H]1CN(C(=O)c2ccc(C(F)(F)F)cc2)CC1(C)C)C(=O)C(=O)Nc1cc[nH]n1` the figure was 0.417 nM; with `CCCC[C@H](NC(=O)O[C@H](Cn1cc(-c2ccc(C(F)(F)F)cc2)cn1)C(C)(C)C)C(=O)C(=O)Nc1ccn[nH]1`, 0.0257 nM.
For the molecule `CCCC[C@H](NC(=O)O[C@H](Cn1cnc(-c2ccc(C(F)(F)F)cc2)c1)C(C)(C)C)C(=O)C(=O)Nc1ccn[nH]1`, the pIC50 amounted to 10.6.

Usually IC50 stands for the concentration needed to halve the response being measured. A low value points to greater potency in that assay. Broadly, the pIC50 is −log10 of the IC50, conventionally taken in molar units. Read a high pIC50 as a low IC50.
